Measurements published in US12194140B2, “Compositions for topical treatment of microbial infections” (Hennepin Life Sciences, priority 2012, dated 2025).

Key:
Staphylococcus aureus = test: Spectrum of antibacterial activity of GML; assay type: cell-based; conditions: optimal growth conditions; 54 strains tested
Group G Streptococcus = test: Spectrum of antibacterial activity of GML; assay type: cell-based; conditions: optimal growth conditions; 1 strain tested
Streptococcus sanguinis = test: Spectrum of antibacterial activity of GML; assay type: cell-based; conditions: optimal growth conditions; 1 strain tested
[1] = system: Streptococcus pneumoniae Serotype III; test: Spectrum of antibacterial activity of GML; assay type: cell-based; conditions: optimal growth conditions; 2 strains tested
[2] = system: Bacillus anthracis Sterne; assay type: cell-based; conditions: optimal growth conditions; 1 strain tested
Clostridium perfringens = assay type: cell-based; conditions: optimal growth conditions; 1 strain tested
[3] = system: Haemophilus influenzae Non-typable; test: Spectrum of antibacterial activity of GML; assay type: cell-based; conditions: optimal growth conditions; 2 strains tested
Campylobacter jejuni = test: Spectrum of antibacterial activity of GML; assay type: cell-based; conditions: optimal growth conditions; 1 strain tested
[4] = system: Bordetella bronchiseptica; test: Spectrum of antibacterial activity of GML; assay type: cell-based; conditions: optimal growth conditions; 1 strain tested
Pseudomonas aeruginosa = test: Spectrum of antibacterial activity of GML; assay type: cell-based; conditions: optimal growth conditions; 1 strain tested
Burkholderia cenocepacia = test: Spectrum of antibacterial activity of GML; assay type: cell-based; conditions: optimal growth conditions; 1 strain tested
Pasteurella multocida = test: Spectrum of antibacterial activity of GML; assay type: cell-based; conditions: optimal growth conditions; 1 strain tested
Escherichia coli = test: Spectrum of antibacterial activity of GML; assay type: cell-based; conditions: optimal growth conditions; 2 strains tested
Enterobacter aerogenes = test: Spectrum of antibacterial activity of GML; assay type: cell-based; conditions: optimal growth conditions; 1 strain tested
Shigella sonnei = assay type: cell-based
Klebsiella pneunoniae = test: Spectrum of antibacterial activity of GML; assay type: cell-based; conditions: optimal growth conditions; 1 strain tested
Candida albicans = test: GML in vegetable oil, growth in Todd Hewitt broth (CFU/mL); assay type: cell-based; conditions: GML in olive, palm or corn oil (all 3); 18 hours, 37° C.
S. aureus biofilm = test: Treatment of previously formed biofilms; assay type: cell-based; conditions: 48 hour biofilm; 500 μg/mL GML for 60 minutes at 37° C.
H. influenzae biofilm = test: Treatment of previously formed biofilms; assay type: cell-based; conditions: 48 hour biofilm; 500 μg/mL GML for 60 minutes at 37° C.
Description: Supernatants were removed and bactericidal activity was determined by measuring CFU/mL (FIG. 9, left; # significant reduction in mean absorbance at 595 nm compared to no GML control, p<0.01). Wells were then washed and stained with crystal violet as described above.

E. coli (Watson strain) = test: Effect of pH on GML activity; assay type: cell-based; conditions: for bactericidal GML concentration: 24 hours
Description: An experiment was conducted to determine the effect of GML in the presence of various pH levels on the growth of E. coli. E. coli (Watson strain) was grown in Todd Hewitt media and adjusted to […]. Using acetate buffer, the pH of the cultures was adjusted to 5.0, 6.0, or 7.0. […] Samples were removed for enumeration of CFU/mL at 24 hours.

[5] = system: P. aeruginosa (strain PAO 1); test: Effect of pH on GML activity; assay type: cell-based, Pseudomonas aeruginosa; conditions: GML 10 μg/mL to 5000 μg/mL, 24 hours
Description: The effect of GML at a range of concentrations and in the presence of a range of pH levels on the growth of Pseudomonas aeruginosa was also determined. P. aeruginosa (strain PAO 1) was inoculated in Todd Hewitt broth at 5.7×10^6/mL. GML was added to cultures at a range of concentrations from 10 μg/mL to 5000 μg/mL, and the pH was adjusted to 5.0, 6.0, or 7.0. CFU/mL was determined after 24 hours of incubation. […] A pH of 5.0 in the absence of GML was somewhat inhibitory for the growth of P. aeruginosa.

S. pyogenes = test: Bactericidal activity of GML versus lauric acid; assay type: cell-based; conditions: 24 hours, 37° C.
oral aerobic bacteria = test: Decolonization of teeth and gum lines; assay type: in vivo, human; conditions: 5% GML gel on teeth and gum lines; thirty minutes after treatment
Text: Human volunteers were swabbed with a PBS-saturated swab across the teeth and gum lines on the left side of the mouth and tested for CFU/mL of total bacteria subsequently grown on blood agar plates. The same individuals were then swabbed with GML gel by swabbing the gel across the teeth and gum lines on the right side of the mouth. Enough gel was used to coat the entire surface area of the teeth and gum lines. Thirty minutes after treatment, the participants were swabbed with PBS-saturated swabs on the right side and total CFU/mL were determined. […] Bacterial counts on both sides of the teeth and gum lines were presumed to be approximately equal, and a pre-test swab confirmed that this was the case.

Substance: Glycerol monolaurate [GML]
- Average Bactericidal Concentration of GML (Staphylococcus aureus): 300 µg/mL
- Average Bactericidal Concentration of GML (Group G Streptococcus): 50 µg/mL
- Average Bactericidal Concentration of GML (Streptococcus sanguinis): 50 µg/mL
- Average Bactericidal Concentration of GML [1]: 10 µg/mL
- Average Bactericidal Concentration of GML [2]: 50 µg/mL
- Average Bactericidal Concentration of GML (Clostridium perfringens): 1 µg/mL
- Average Bactericidal Concentration of GML [3]: 50 µg/mL
- Average Bactericidal Concentration of GML (Campylobacter jejuni): 1 µg/mL
- Average Bactericidal Concentration of GML [4]: 1 µg/mL
- Average Bactericidal Concentration of GML (Pseudomonas aeruginosa): Not Susceptible
- Average Bactericidal Concentration of GML (Burkholderia cenocepacia): 500 µg/mL
- Average Bactericidal Concentration of GML (Pasteurella multocida): 500 µg/mL
- Average Bactericidal Concentration of GML (Escherichia coli): Not Susceptible
- Average Bactericidal Concentration of GML (Enterobacter aerogenes): Not Susceptible
- Average Bactericidal Concentration of GML (Shigella sonnei): Not Susceptible
- Average Bactericidal Concentration of GML (Klebsiella pneunoniae): Not Susceptible
- GML concentration at which growth was inhibited (Candida albicans): 100 µg/mL
- bactericidal activity on previously formed biofilm (CFU/mL) (S. aureus biofilm): killed
- biofilm material attached to the wells (crystal violet staining) (S. aureus biofilm): nearly completely removed biofilm material
- bactericidal activity on previously formed biofilm (CFU/mL) (H. influenzae biofilm): killed
- biofilm material attached to the wells (crystal violet staining) (H. influenzae biofilm): nearly completely removed biofilm material
- bactericidal GML concentration (E. coli (Watson strain); pH 5.0): 0.1 µg/mL
- bactericidal GML concentration (E. coli (Watson strain); pH 6.0): 50 µg/mL
- bactericidal GML concentration (E. coli (Watson strain); pH 7.0): > 5000 µg/mL
- increase in susceptibility to GML with each unit drop in pH (E. coli (Watson strain); pH 7.0 to 5.0): 500 times
- effect on growth (CFU/mL) ([5]; pH 5.0): further inhibited P. aeruginosa growth in a dose-dependent manner
- effect on growth (CFU/mL) ([5]; pH 6.0 or 7.0): no concentration of GML was inhibitory
- fold more bactericidal for S. pyogenes than for S. aureus (S. pyogenes): 5 fold
- fold lower bactericidal concentration than lauric acid (S. pyogenes; 7% CO2, bactericidal = at least 3 log reduction): 500 fold
- reduction in CFUs between pretreatment and post-treatment swabs (oral aerobic bacteria): > 5 log
